According to patent US8815857B2 (Boehringer Ingelheim International GmbH, priority 2011, dated 2014):
≈ marks a conversion by molar mass, not a printed value.

Columns and labels:
[1] = Assessment of solubility: HT solubility in pION buffer, UV spectrophotometry; settings: 16-19 h incubation, 1.0% DMSO; for solubility: pION system solution buffer, kinetic from dmso stock
[2] = target: T1, Recombinant human soluble guanylate cyclase (sGC), alpha 1 / beta 1 subunits, heme-free (Homo sapiens, UniProt Q02108+Q02153); assay: Molecular assay: cGMP formation by heme-free recombinant sGC (CisBio cGMP detection kit); assay type: biochemical; settings: 300 pM heme-free sGC, 37° C., 60 min, cGMP readout; read-out: EC50 nM, Activity of Compounds in Molecular Assay
T1 construct: histidine tag (C); made in house; host or cells: Sf9 insect cells (baculovirus coinfection)
T1 sequence (Q02108 1-690 partner): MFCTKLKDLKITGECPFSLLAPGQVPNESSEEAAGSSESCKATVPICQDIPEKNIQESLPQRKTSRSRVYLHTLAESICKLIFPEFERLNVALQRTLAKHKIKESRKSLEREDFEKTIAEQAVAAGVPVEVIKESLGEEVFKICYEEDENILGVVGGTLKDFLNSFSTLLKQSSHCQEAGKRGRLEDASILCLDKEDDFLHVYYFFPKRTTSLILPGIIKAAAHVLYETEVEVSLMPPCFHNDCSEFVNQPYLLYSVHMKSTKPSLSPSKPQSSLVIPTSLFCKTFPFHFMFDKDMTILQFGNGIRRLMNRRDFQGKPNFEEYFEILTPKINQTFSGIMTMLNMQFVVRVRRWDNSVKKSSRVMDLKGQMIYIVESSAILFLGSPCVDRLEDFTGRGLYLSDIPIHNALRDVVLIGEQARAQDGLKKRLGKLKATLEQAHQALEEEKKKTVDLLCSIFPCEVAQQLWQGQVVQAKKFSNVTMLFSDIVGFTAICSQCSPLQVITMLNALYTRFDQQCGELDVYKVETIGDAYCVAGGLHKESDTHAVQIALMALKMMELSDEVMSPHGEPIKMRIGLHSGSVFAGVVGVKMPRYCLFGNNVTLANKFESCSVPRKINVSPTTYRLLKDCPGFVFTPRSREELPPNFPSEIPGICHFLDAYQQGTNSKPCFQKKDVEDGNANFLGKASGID
T1 sequence (Q02153 1-619): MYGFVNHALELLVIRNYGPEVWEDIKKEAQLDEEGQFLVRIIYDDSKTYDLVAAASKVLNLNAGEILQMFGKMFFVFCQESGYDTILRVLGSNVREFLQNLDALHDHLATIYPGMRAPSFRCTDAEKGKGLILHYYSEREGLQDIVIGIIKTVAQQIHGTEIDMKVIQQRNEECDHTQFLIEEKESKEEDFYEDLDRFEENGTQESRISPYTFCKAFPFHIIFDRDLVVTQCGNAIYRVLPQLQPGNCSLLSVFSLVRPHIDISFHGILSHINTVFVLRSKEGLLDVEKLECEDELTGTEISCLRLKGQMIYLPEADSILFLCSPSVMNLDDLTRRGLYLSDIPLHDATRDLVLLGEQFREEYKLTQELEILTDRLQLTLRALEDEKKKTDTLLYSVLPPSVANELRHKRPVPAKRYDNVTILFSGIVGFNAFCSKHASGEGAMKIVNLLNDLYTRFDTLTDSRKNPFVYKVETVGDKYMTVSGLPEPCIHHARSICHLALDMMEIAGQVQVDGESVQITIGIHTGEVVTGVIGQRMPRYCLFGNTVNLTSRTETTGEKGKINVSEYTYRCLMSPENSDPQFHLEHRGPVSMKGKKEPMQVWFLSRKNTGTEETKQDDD
How it was run: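 Heme-free His-tagged sGC (Sf9-expressed, Tween 20-treated lysate) at 300 pM incubated with compounds (1% DMSO) for 60 min at 37° C in MOPS pH 6.8 with 50 nM GTP, IBMX, TCEP. cGMP quantified by HTRF against calibration curve; EC50 from combined undiluted/diluted values.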

[3] = pH 4.5, pH 4.5, aqueous buffer, Solubility (pH 4.5), pH 4.5 buffer
[4] = pH 7.4, pH 7.4, aqueous buffer, Solubility (pH 7.4), pH 7.4 buffer

| solubility [1, 3] [µg/mL] | solubility [1, 4] [µg/mL] | EC50 [2] [nM] | Solubility (pH 4.5) ([1]; pH 4.5 buffer) [μg/mL] | SMILES |
| --- | --- | --- | --- | --- |
| 2.3 (≈ 4.31 µM) | > 53 | 2600 |  | Cc1ccc(OCc2ccc(C(=O)N3CCCCC3)cc2C)c(-c2csc(N[C@H]3CC[C@@H](C(=O)O)C3)n2)c1 [Compound 40, (1R,3S)-3-[[4-[5-methyl-2-[[2-methyl-4-(piperidine-1-carbonyl)phenyl]methoxy]phenyl]thiazol-2-yl]amino]cyclopentanecarboxylic acid] |
| 0.15 (≈ 0.255 µM) | > 58 | 89 |  | Cc1cc(CN2CCS(=O)(=O)CC2)ccc1COc1ccc(F)cc1-c1csc(N2CCC(C(=O)O)C(C)C2)n1 (stereo not drawn) [Compound 129] |
| 11 (≈ 19.8 µM) | 25 (≈ 45 µM) | 210 |  | Cc1cc(CN2CCOCC2)ccc1COc1ccc(Cl)cc1-c1csc(N2CCC(C(=O)O)C(C)C2)n1 (stereo not drawn) [Compound 83] |
| 44 (≈ 81.5 µM) | > 61 | 480 |  | Cc1cc(CN2CCOCC2)ccc1COc1ccc(F)cc1-c1csc(N2CCC(C(=O)O)C(C)C2)n1 (stereo not drawn) [Compound 58] |
| 1.9 (≈ 3.47 µM) | > 54 | 7.6 |  | Cc1ccc(OCc2ccc(C(=O)N3CCCCC3)cc2C)c(-c2csc(N3CCC(C(=O)O)CC3C)n2)c1 (stereo not drawn) [Compound 73] |
| > 58 | > 58 | 39 |  | Cc1ccc(OCc2ccc(CN3CCOCC3)cc2C)c(-c2csc(N3CCCC(C(=O)O)CC3)n2)c1 (stereo not drawn) [Compound 52] |
| 37 (≈ 72.9 µM) | 40 (≈ 78.8 µM) | 2000 |  | Cc1ccc(OCc2ccc(CN3CCOCC3)cc2C)c(-c2csc(N3CC[C@@H](C(=O)O)C3)n2)c1 (single isomer, unassigned) [Compound 5, R-1-{4-[5-methyl-2-(2-methyl-4-morpholin-4-ylmethyl-benzyloxy)-phenyl]-thiazol-2-yl}-pyrrolidine-3-carboxylic acid] |
| 35 (≈ 62.4 µM) | > 56 | 150 |  | Cc1ccc(OCc2ccc(C(=O)N3CCC(O)CC3)cc2C#N)c(-c2csc(N3CCC(C(=O)O)CC3)n2)c1 [Compound 90] |
| 0.35 (≈ 0.626 µM) | > 55 | 1100 |  | Cc1cc(C(=O)N2CCCCC2)ccc1COc1ccc(C#N)cc1-c1csc(N2CCC(C(=O)O)CC2C)n1 (stereo not drawn) [Compound 85] |
| 25 (≈ 47.1 µM) | > 53 | 250 |  | Cc1cccc(-c2csc(N3CCC(C(=O)O)CC3)n2)c1OCc1ccc(C(=O)N2CCCC2)cc1C#N [Compound 31] |
| 16 (≈ 26.7 µM) | 37 (≈ 61.8 µM) | 110 |  | Cc1ccc(OCc2ccc(CN3CCN(S(C)(=O)=O)CC3)cc2C)c(-c2csc(N3CCC(C(=O)O)CC3)n2)c1 [Compound 196] |
| > 63 | > 63 | 1600 |  | Cc1ccc(OCc2ccc(CN3CCOCC3)cc2C)c(-c2csc(N3CCCC(C(=O)O)C3)n2)c1 (stereo not drawn) [Compound 22] |
| > 52 | > 52 | 3100 |  | Cc1ccc(OCc2ccc(CN3CCOCC3)cc2C)c(-c2csc(N[C@H]3CC[C@@H](C(=O)O)C3)n2)c1 [Compound 181] |
| > 52 | > 52 | 1300 |  | Cc1ccc(OCc2ccc(CN3CCOCC3)cc2C)c(-c2csc(NCCC(=O)O)n2)c1 [Compound 3] |
| 34 (≈ 63.6 µM) | 36 (≈ 67.3 µM) | 2400 |  | COCCN(C)Cc1ccc(COc2ccc(C#N)cc2-c2csc(N3CCC(C(=O)O)CC3)n2)c(C)c1 [Compound 171] |
| > 63 | > 63 | 2000 |  | Cc1ccc(OCc2ccc(CNC(C)(C)CO)cc2C)c(-c2csc(N3CCC(C(=O)O)CC3)n2)c1 [Compound 26] |
| 3.3 (≈ 5.67 µM) | > 58 | 280 |  | Cc1cc(CN2CCS(=O)(=O)CC2)ccc1COc1ccccc1-c1csc(N2CC3CCC(C2)C3C(=O)O)n1 (stereo not drawn) [Compound 121] |

| solubility [1, 3] [µg/mL] | solubility [1, 4] [µg/mL] | EC50 [2] [nM] | Solubility (pH 4.5) ([1]; pH 4.5 buffer) [μg/mL] | SMILES |
| --- | --- | --- | --- | --- |
| 0.3 (≈ 0.481 µM) | > 62 | 170 |  | Cc1cc(CN2CCS(=O)(=O)CC2)ccc1COc1ccccc1-c1csc(N2CCC(C(=O)O)CC2C(F)(F)F)n1 (stereo not drawn) [Compound 152] |
| > 63 | > 63 | 4700 |  | Cc1ccc(OCc2ccc(CN3CCOCC3)cc2C)c(-c2csc(N3CC4C(C3)C4C(=O)O)n2)c1 (stereo not drawn) [Compound 14] |
| 0.25 (≈ 0.469 µM) | > 53 | 1700 |  | Cc1ccc(OCc2ccc(C(=O)N3CCCCC3)cc2C)c(-c2csc([C@H]3CC[C@H](C(=O)O)CC3)n2)c1 [Compound 38] |
| 0.25 (≈ 0.413 µM) | > 60 | 650 |  | Cc1cc(C(=O)N2CCCCC2)ccc1COc1ccc(F)cc1-c1csc(N2CCC(C(=O)O)C(C(F)(F)F)C2)n1 (stereo not drawn) [Compound 145] |
| > 64 | > 64 | 260 |  | COCCN(C)Cc1ccc(COc2ccc(C)cc2-c2csc(N3CCC(C(=O)O)CC3)n2)c(C#N)c1 [Compound 46] |
| 3 (≈ 5.28 µM) | > 56 | 1700 |  | Cc1ccc(OCc2ccc(CN3CCS(=O)(=O)CC3)cc2C)c(-c2csc(N3CC4C(C3)C4C(=O)O)n2)c1 (stereo not drawn) [Compound 101] |
| > 57 | > 57 | 2700 |  | CNC(=O)C1CCN(Cc2ccc(COc3c(C)cccc3-c3csc(N4CCC(C(=O)O)CC4)n3)c(C)c2)CC1 [Compound 115] |
|  | 4.1 (≈ 7.44 µM) | 600 | 0.1 | Cc1cc(C(=O)N2CCCCC2)ccc1COc1ccc(Cl)cc1-c1csc(C2=CCC(C(=O)O)CC2)n1 (stereo not drawn) [Compound 76] |
| 0.2 (≈ 0.34 µM) | > 58 | 400 |  | Cc1cc(C(=O)N2CCCCC2)ccc1COc1ccccc1-c1csc(N2CCC(C(=O)O)C(C(F)(F)F)C2)n1 (stereo not drawn) [Compound 127] |
| 8.5 (≈ 13.5 µM) | 30 (≈ 47.8 µM) | 80 |  | Cc1ccc(OCc2ccc(CN3CCN(S(=O)(=O)N(C)C)CC3)cc2C)c(-c2csc(N3CCC(C(=O)O)CC3)n2)c1 [Compound 200] |
| > 56 | > 56 | 770 |  | Cc1cc(CN2CCCC(C(N)=O)C2)ccc1COc1c(C)cccc1-c1csc(N2CCC(C(=O)O)CC2)n1 (stereo not drawn) [Compound 94] |
| 30 (≈ 55.3 µM) | 32 (≈ 59 µM) | 110 |  | Cc1cc(CN2CCOCC2)ccc1COc1ccc(Cl)cc1-c1csc(N2CCC(C(=O)O)CC2)n1 [Compound 63] |
| 0.35 (≈ 0.614 µM) | > 68 | 19 |  | Cc1ccc(OCc2ccc(CN3CCS(=O)(=O)CC3)cc2C)c(-c2csc(N3CCC(C(=O)O)CC3)n2)c1 [Compound 104] |
| 0.25 (≈ 0.453 µM) | > 55 | 50 |  | Cc1cc(C(=O)N2CCCCC2)ccc1COc1ccc(F)cc1-c1csc(N2CCC(C(=O)O)CC2C)n1 (stereo not drawn) [Compound 79] |
| 30 (≈ 52.1 µM) | > 57 | 470 |  | Cc1cc(CN2CCOCC2)ccc1COc1ccccc1-c1csc(N2CCC(C(=O)O)CC2C(F)(F)F)n1 (stereo not drawn) [Compound 114] |
| > 64 | > 64 | 4000 |  | Cc1ccc(OCc2ccc(CNC(C)(C)CO)cc2C#N)c(-c2csc(N3CCC(C(=O)O)CC3)n2)c1 [Compound 47] |

| SMILES | solubility [1, 3] [µg/mL] | solubility [1, 4] [µg/mL] | EC50 [2] [nM] | Solubility (pH 4.5) ([1]; pH 4.5 buffer) [μg/mL] |
| --- | --- | --- | --- | --- |
| Cc1cc(CN2CCS(=O)(=O)CC2)ccc1COc1ccc(F)cc1-c1csc(N2C3CCC2CC(C(=O)O)C3)n1 (stereo not drawn) [Compound 139] | 0.6 (≈ 1 µM) | > 59 | 380 |  |
| Cc1cc(C(=O)N2CCCCC2)ccc1COc1ccccc1-c1csc(N2C3CCC2CC(C(=O)O)C3)n1 (stereo not drawn) [Compound 68] | 1.2 (≈ 2.2 µM) | > 54 | 43 |  |
